Experimental data published in patent publication EP1247803A2, “Indolinone compounds suitable for modulation of protein kinases” (Sugen, Inc., priority 1996, dated 1998).

Experiments:
EGFR = molecular target: T1, EGFR (Homo sapiens, UniProt P00533); assay: EGFR ELISA assay (in vitro kinase activity, EGFR captured from A431 cell lysate); type: biochemical; parameters: concentration or dose not given beside the values
T1 construct: Add 7 ug A431 cell lysate per well (EGFR source); endogenous in cells; host or cells: A431
T1 sequence (P00533 25-1210): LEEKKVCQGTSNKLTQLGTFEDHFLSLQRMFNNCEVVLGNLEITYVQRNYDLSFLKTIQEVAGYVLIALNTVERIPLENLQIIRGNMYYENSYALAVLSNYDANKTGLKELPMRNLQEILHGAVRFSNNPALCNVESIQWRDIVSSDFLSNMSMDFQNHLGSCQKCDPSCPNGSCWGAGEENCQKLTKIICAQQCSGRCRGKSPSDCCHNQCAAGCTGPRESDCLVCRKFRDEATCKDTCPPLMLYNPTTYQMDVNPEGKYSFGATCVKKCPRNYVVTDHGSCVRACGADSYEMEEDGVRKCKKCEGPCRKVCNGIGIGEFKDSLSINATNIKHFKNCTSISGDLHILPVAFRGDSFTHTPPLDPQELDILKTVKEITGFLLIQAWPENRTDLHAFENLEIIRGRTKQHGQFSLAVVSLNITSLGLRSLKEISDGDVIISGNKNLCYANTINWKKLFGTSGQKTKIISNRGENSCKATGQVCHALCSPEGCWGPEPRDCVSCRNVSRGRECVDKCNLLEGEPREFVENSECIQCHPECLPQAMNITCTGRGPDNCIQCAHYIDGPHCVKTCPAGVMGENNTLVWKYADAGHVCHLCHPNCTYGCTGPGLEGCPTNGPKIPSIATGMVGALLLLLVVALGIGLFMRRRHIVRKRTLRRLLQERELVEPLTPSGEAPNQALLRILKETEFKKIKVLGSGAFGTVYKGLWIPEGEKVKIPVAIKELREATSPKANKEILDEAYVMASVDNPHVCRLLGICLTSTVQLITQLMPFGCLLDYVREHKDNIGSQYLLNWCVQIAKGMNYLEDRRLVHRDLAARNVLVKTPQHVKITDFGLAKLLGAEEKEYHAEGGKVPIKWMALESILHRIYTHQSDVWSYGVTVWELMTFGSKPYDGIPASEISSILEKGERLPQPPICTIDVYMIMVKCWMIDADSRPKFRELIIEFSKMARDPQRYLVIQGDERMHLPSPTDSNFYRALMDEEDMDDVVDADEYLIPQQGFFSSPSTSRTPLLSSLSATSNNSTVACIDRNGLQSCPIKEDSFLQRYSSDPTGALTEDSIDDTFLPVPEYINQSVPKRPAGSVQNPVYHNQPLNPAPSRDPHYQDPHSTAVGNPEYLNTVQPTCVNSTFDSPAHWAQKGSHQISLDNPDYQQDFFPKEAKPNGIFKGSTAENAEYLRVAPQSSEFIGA
In short: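 EGFR from A431 lysate was captured on anti-EGFR antibody-coated plates and preincubated with compounds for 30 min. Autophosphorylation ran 5 min with 3 uM ATP and 5 mM MnCl2 (final), stopped with 20 mM EDTA. Phosphotyrosine was detected by anti-pTyr ELISA with ABTS/H2O2, read at 410 nm.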

PDGF-R = PDGF-R (Homo sapiens, UniProt P09619); assay: PDGF-R ELISA; type: cell-based
Chain of PDGF-R (P09619 33-1106, species assumed): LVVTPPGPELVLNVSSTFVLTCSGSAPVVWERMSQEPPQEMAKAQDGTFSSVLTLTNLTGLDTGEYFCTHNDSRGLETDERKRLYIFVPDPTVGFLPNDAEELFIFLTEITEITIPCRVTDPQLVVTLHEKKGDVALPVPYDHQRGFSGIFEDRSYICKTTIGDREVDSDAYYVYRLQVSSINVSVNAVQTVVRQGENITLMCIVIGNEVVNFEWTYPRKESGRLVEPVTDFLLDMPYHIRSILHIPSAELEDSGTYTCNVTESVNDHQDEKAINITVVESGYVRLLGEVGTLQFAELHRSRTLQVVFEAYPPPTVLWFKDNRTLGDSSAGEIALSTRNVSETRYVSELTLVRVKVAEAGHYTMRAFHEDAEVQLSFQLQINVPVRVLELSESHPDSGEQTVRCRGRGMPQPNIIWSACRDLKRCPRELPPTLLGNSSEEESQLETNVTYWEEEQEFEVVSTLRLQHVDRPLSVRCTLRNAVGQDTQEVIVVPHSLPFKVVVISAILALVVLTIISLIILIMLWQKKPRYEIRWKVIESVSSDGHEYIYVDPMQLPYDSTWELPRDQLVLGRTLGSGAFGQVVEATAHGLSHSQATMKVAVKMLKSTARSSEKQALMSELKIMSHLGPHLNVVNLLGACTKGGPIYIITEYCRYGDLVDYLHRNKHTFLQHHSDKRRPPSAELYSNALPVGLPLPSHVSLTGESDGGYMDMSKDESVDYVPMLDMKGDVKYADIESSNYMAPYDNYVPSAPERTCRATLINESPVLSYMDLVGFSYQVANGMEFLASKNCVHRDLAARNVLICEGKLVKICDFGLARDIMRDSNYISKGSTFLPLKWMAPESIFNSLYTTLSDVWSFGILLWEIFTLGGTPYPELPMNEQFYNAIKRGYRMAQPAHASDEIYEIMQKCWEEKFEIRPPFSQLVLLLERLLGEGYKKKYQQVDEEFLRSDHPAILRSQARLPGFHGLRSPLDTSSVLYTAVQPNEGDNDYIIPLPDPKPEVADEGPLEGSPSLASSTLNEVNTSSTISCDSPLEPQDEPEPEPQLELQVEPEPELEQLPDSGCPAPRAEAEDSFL
Description: A PDGF-R ELISA is described in International Patent Publication No. WO 96/40116, published December 19, 1996 by Tang et al.

MET = MET biochemical kinase assay; parameters: species or system human; concentration or dose not given beside the values
In short: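 In this format, tyrosine phosphorylation of plate-captured human MET is followed in vitro after compound addition in ATP/divalent-cation buffer, detected by anti-phosphotyrosine-HRP with TMB substrate.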

Row | SMILES | Biochem EGFR %Inhibition (EGFR) [%] | PDGF Kinase %Inhibition (PDGF-R) [%] | Met Kinase % Inhibition (MET) [%]
1 | COc1ccc(C=C2C(=O)Nc3ccc(I)cc32)c(OC)c1OC [10730/B02] | 10.4 | 5.4 | 66.3
2 | O=C1Nc2c(Br)cc(Br)cc2C1=Cc1cc2ccccc2nc1Cl [10730/A08] | 10.4 | -6.0 | 69.0
3 | CNS(=O)(=O)c1ccc2c(c1)C(=Cc1ccc(OC)c(OC)c1OC)C(=O)N2 [10730/D02] | 18.6 | 24.3 | 34.7
4 | COC1CC(C=C2C(=O)Nc3c(Br)cc(Br)cc32)C(OC)O1 (stereo not drawn) [10730/A10] | 56.1 | 1.0 | 68.7
5 | COc1cc(C=C2C(=O)Nc3ccc(I)cc32)cc(OC)c1OC [10730/B04] | 36.5 | 7.2 | 73.2
6 | COC1CC(C=C2C(=O)Nc3ccc(S(=O)(=O)Nc4ccc(C(F)(F)F)cc4)cc32)C(OC)O1 (stereo not drawn) [10730/E10] | 9.3 | 39.6 | 63.6
7 | Cc1cc(C=C2C(=O)Nc3ccc(S(=O)(=O)Nc4ccc(C(F)(F)F)cc4)cc32)oc1C [10730/E11] | 19.1 | 31.7 | 77.2
8 | O=C1Nc2ccc(CCCl)cc2C1=Cc1ccc(N2CCCC2)cc1 [10729/G10] | 60.1 | -13.2 | 26.7
9 | O=C1Nc2ccc(S(=O)(=O)N3CCOCC3)cc2C1=Cc1cc2ccccc2nc1Cl [10730/F08] | 0.8 | -0.3 | 46.4
10 | O=C1Nc2ccc(S(=O)(=O)Nc3ccc(C(F)(F)F)cc3)cc2C1=Cc1ccc(-c2ccccc2Cl)o1 [10730/E07] | 18.8 | 30.0 | 37.1
11 | Cc1c(Br)ccc2c1C(=Cc1ccc(-c3ccccc3Cl)o1)C(=O)N2 [10730/C07] | 20.3 | 1.0 | 37.4
12 | O=C1Nc2ccc(I)cc2C1=Cc1ccc(-c2ccccc2Cl)o1 [10730/B07] | 57.1 | 2.4 | 63.1
13 | Cc1c(Br)ccc2c1C(=Cc1cc3ccccc3nc1Cl)C(=O)N2 [10730/C08] | 24.3 | 8.5 | 56.5
14 | COc1ccc(C=C2C(=O)Nc3c(Br)cc(Br)cc32)c(OC)c1OC [10730/A02] | 27.5 | -23.1 | 39.5
15 | CC(=O)n1cc(C=C2C(=O)Nc3ccc(I)cc32)c2ccccc21 [10730/B05] | 8.5 | -2.9 | 71.1
16 | COc1cc(C=C2C(=O)Nc3ccc(S(=O)(=O)Nc4ccc(C(F)(F)F)cc4)cc32)cc(OC)c1OC [10730/E04] | 13.5 | 18.6 | 35.2

Row | SMILES | Biochem EGFR %Inhibition (EGFR) [%] | PDGF Kinase %Inhibition (PDGF-R) [%] | Met Kinase % Inhibition (MET) [%]
17 | O=C1Nc2ccc(CCCl)cc2C1=Cc1ccccn1 [10729/G07] | -0.8 | 14.4 | 38.2
18 | O=C1Nc2ccc(S(=O)(=O)Nc3ccc(C(F)(F)F)cc3)cc2C1=Cc1cccnc1 [10729/E08] | 40.1 | 11.0 | 73.7
19 | COc1cc(OC)c(OC)cc1C=C1C(=O)Nc2ccc(I)cc21 [10730/B03] | 46.8 | 17.3 | 78.3
20 | COc1ccc(C=C2C(=O)Nc3ccc(CCCl)cc32)c2ccccc12 [10729/G03] | 14.6 | 13.7 | 20.1
21 | O=C1Nc2ccc(S(=O)(=O)N3CCOCC3)cc2C1=Cc1ccc(-c2ccccc2Cl)o1 [10730/F07] | 27.3 | -2.0 | 60.7
22 | O=C1Nc2ccc(I)cc2C1=Cc1coc2c(Br)cc(Br)cc2c1=O [10730/B09] | 14.2 | 15.1 | 70.6
23 | CC(=O)n1cc(C=C2C(=O)Nc3ccc(S(=O)(=O)N4CCOCC4)cc32)c2ccccc21 [10730/F05] | -16.3 | 19.5 | 23.5
24 | CNS(=O)(=O)c1ccc2c(c1)C(=Cc1cn(C(C)=O)c3ccccc13)C(=O)N2 [10730/D05] | 12.6 | -1.6 | 38.1
25 | COc1cc(OC)c(OC)cc1C=C1C(=O)Nc2ccc(Br)c(C)c21 [10730/C03] | -12.1 | 36.5 | 43.2
26 | O=C1Nc2c(Br)cc(Br)cc2C1=Cc1ccc(-c2ccccc2Cl)o1 [10730/A07] | 10.4 | -23.9 | 55.4
27 | CC(=O)n1cc(C=C2C(=O)Nc3ccc(Br)c(C)c32)c2ccccc21 [10730/C05] | -9.8 | 8.5 | 46.1
28 | COc1cc(C=C2C(=O)Nc3c(Br)cc(Br)cc32)cc(OC)c1OC [10730/A04] | 37.2 | -5.1 | 70.6
29 | CNS(=O)(=O)c1ccc2c(c1)C(=Cc1cc3ccccc3nc1Cl)C(=O)N2 [10730/D08] | 44.9 | 12.9 | -13.6
30 | O=C1Nc2ccc(S(=O)(=O)Nc3ccc(C(F)(F)F)cc3)cc2C1=CC1C=CCCC1 (stereo not drawn) [10729/E11] | 25.7 | 22.4 | 50.8
31 | O=C1Nc2ccc(S(=O)(=O)Nc3ccc(C(F)(F)F)cc3)cc2C1=Cc1ccncc1 [10729/E09] | 29.6 | -11.7 | 85.0
